Experimental data taken from the supplement of paper PMC10307832.

What was measured:
Experiment in all cases: relative viability (nuclei count vs DMSO), 5 days (fraction); higher = more cells survive
[1] = compound: CC(C)N(CCCNC(=O)Nc1ccc(C(C)(C)C)cc1)C[C@H]1O[C@@H](n2ccc3c(N)ncnc32)[C@H](O)[C@@H]1O + NC(=O)Nc1cc(-c2cccc(F)c2)sc1C(=O)N[C@H]1CCCNC1 [AZD7762] (partner 0.2 µM)
Outline: (§1)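 Nuclei were stained with Hoechst during a one-step fixation (final 0.05% Triton X-100, 1% formaldehyde, 1 ug/ml Hoechst) carried out 5 days after dosing, then counted on 4× images. The cells, lung cancer lines in 1536-well plates, had been dosed by pin tool the day after seeding with one drug alone or a fixed anchor-drug dose plus five library-drug doses (not always all listed) in √10 steps. Relative viability is the nuclei count in treated wells divided by that in vehicle wells, and each value is the median of duplicate plates.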

Shikonin + Crizotinib = compound: CC(C)=CC[C@@H](O)C1=CC(=O)c2c(O)ccc(O)c2C1=O [Shikonin] + C[C@@H](Oc1cc(-c2cnn(C3CCNCC3)c2)cnc1N)c1c(Cl)ccc(F)c1Cl [Crizotinib] (partner 1 µM)
Outline: as §1

Shikonin + Bortezomib = compound: CC(C)=CC[C@@H](O)C1=CC(=O)c2c(O)ccc(O)c2C1=O [Shikonin] + CC(C)C[C@H](NC(=O)[C@H](Cc1ccccc1)NC(=O)c1cnccn1)B(O)O [Bortezomib] (partner 0.002 µM)
Outline: as §1

[2] = compound: CC(C)N(CCCNC(=O)Nc1ccc(C(C)(C)C)cc1)C[C@H]1O[C@@H](n2ccc3c(N)ncnc32)[C@H](O)[C@@H]1O + CC(C)C[C@H](NC(=O)[C@H](Cc1ccccc1)NC(=O)c1cnccn1)B(O)O [Bortezomib] (partner 0.002 µM)
Outline: as §1

Cell Line	relative viability ([1]; first compound 0.08 µM)	relative viability ([1]; first compound 0.253 µM)	relative viability ([1]; first compound 0.8 µM)	relative viability ([1]; first compound 2.53 µM)	relative viability ([1]; first compound 8 µM)	relative viability (Shikonin + Crizotinib; first compound 0.01 µM)	relative viability (Shikonin + Crizotinib; first compound 0.1 µM)	relative viability (Shikonin + Crizotinib; first compound 0.3162 µM)	relative viability (Shikonin + Crizotinib; first compound 1 µM)	relative viability (Shikonin + Bortezomib; first compound 0.1 µM)	relative viability (Shikonin + Bortezomib; first compound 0.3162 µM)	relative viability (Shikonin + Bortezomib; first compound 1 µM)	relative viability ([2]; first compound 0.08 µM)	relative viability ([2]; first compound 0.253 µM)	relative viability ([2]; first compound 0.8 µM)	relative viability ([2]; first compound 2.53 µM)	relative viability ([2]; first compound 8 µM)	relative viability (Shikonin + Bortezomib; first compound 0.01 µM)
NCI-H1648	0.656	0.812	0.525	0.645	0.707	–	–	–	–	–	–	–	–	–	–	–	–	–
SK-MES-1	–	–	–	–	–	1.11	1.05	1.08	1.11	–	–	–	–	–	–	–	–	–
NCI-H520	–	–	–	–	–	–	0.878	0.608	0.842	0.699	0.48	0.689	0.581	0.179	0.155	0.647	0.524	–
HCC-366	0.208	0.237	0.277	0.104	0.249	0.745	0.373	0.517	0.561	1.59	1.12	1.08	0.996	0.999	0.948	1.05	1.04	1.32
NCI-H661	–	–	–	–	–	1.24	1.11	0.967	0.957	0.818	0.734	0.769	0.63	0.753	0.625	0.747	0.719	0.835
SW 1573	–	–	–	–	–	0.906	0.867	0.889	0.741	1.39	1.06	0.955	1.13	1.07	1.06	1.12	0.864	1.12
Calu-6	–	–	–	–	–	1.02	0.854	0.912	0.75	1.2	0.878	0.674	1.02	0.999	1.06	1	1.01	1.1
SK-LU-1	–	–	–	–	–	1.11	0.937	0.928	0.877	0.984	1.34	1.58	1.22	1.02	1.18	1.31	1.03	1.14
LK-2	–	0.332	0.628	0.428	0.322	0.248	0.212	0.219	0.221	–	–	–	–	–	–	–	–	–
NCI-H2228	–	–	–	–	–	0.448	0.532	0.414	0.421	0.877	1.25	0.981	0.788	–	0.377	0.825	1.19	0.928
NCI-H1944	0.678	0.415	0.537	0.559	0.575	1.12	1.18	1.24	1.22	–	–	–	–	–	–	–	–	–
NCI-H2023	–	–	–	–	–	0.767	0.583	0.667	0.604	1.21	1.05	0.97	0.89	0.451	0.872	1.09	0.821	1.05
COR-L23	–	–	–	–	–	0.735	0.786	0.601	0.689	1.11	1.18	0.8	0.87	0.968	0.464	1.1	0.929	1.1
NCI-H1299	–	–	–	–	–	0.958	1.09	0.965	0.922	1.03	1.05	1.03	1.03	0.987	0.966	1.04	1.04	1.03
NCI-H1650	–	–	–	–	–	1.06	0.993	1.06	0.691	0.212	0.191	0.171	0.185	0.205	–	0.205	0.201	0.269
NCI-H1793	0.614	–	0.386	0.437	0.426	–	–	–	–	–	–	–	–	–	–	–	–	–
COR-L 105	–	–	–	–	–	1.06	0.721	0.763	0.692	0.887	0.751	0.603	0.719	0.537	0.719	0.744	0.75	0.88
NCI-H2009	–	–	–	–	–	1.07	1.2	0.972	0.45	1.11	0.904	0.289	1.05	0.817	0.883	1.08	0.955	1.07
SW 900	0.718	0.529	–	0.564	0.554	–	–	–	–	–	–	–	–	–	–	–	–	–
NCI-H1563	–	–	–	–	–	0.891	0.845	0.751	0.622	0.909	0.757	0.607	0.844	0.811	0.626	0.873	0.902	0.824
A549	–	–	–	–	–	0.748	0.932	0.872	0.705	–	–	–	–	–	–	–	–	–
NCI-H2342	0.454	0.535	0.455	0.505	0.397	–	–	–	–	–	–	–	–	–	–	–	–	–
NCI-H2170	0.934	0.79	0.66	0.836	0.857	1.5	1.07	1.29	1.25	–	–	–	–	–	–	–	–	–
NCI-H522	0.891	0.794	0.806	0.785	0.886	–	–	–	–	–	–	–	–	–	–	–	–	–
NCI-H1395	0.424	0.412	0.42	0.421	0.38	–	–	–	–	–	–	–	–	–	–	–	–	–
IA-LM	–	–	–	–	–	1.06	–	1.11	0.667	0.769	1.04	0.876	0.81	0.693	0.752	0.689	0.712	0.715
NCI-H358	0.454	0.538	0.569	0.565	0.491	0.699	0.484	0.619	0.63	–	–	–	–	–	–	–	–	–
EBC-1	–	–	–	–	–	0.165	0.224	0.216	0.201	0.48	0.644	0.526	0.508	0.549	0.486	0.466	0.473	0.604
